Assay results taken from ChEMBL document CHEMBL1201861, “Genomics of Drug Sensitity in Cancer screening data, Wellcome Trust Sanger Institute”.
“And” between values parts separate entries of the source, which are not always exact repeats. Identical values can stand only once.

How the values were obtained:
Assay in all cases: cells
DMS-114 = type: functional, cell-based, Homo sapiens
DSH1 = type: functional, cell-based, Homo sapiens;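 also: growth inhibition of human DSH1 cells, measured with a cell viability readout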
Description: SANGER: Inhibition of human DSH1 cell growth in a cell viability assay.

ES4 = type: functional, cell-based, Homo sapiens;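 also: growth inhibition of human ES4 cells, read out by a cell viability assay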
Description: SANGER: Inhibition of human ES4 cell growth in a cell viability assay.

ES7 = type: functional, cell-based, Homo sapiens;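 also: growth inhibition of cultured human ES7 cells, read out as cell viability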
Description: SANGER: Inhibition of human ES7 cell growth in a cell viability assay.

HCT-116 = type: functional, cell-based, Homo sapiens
Description: SANGER: Inhibition of human HCT-116 cell growth in a cell viability assay.

HN = type: functional, cell-based, Homo sapiens
Description: SANGER: Inhibition of human HN cell growth in a cell viability assay.

HT-1080 = type: functional, cell-based, Homo sapiens
Description: SANGER: Inhibition of human HT-1080 cell growth in a cell viability assay.

HuCCT-1 = type: functional, cell-based, Homo sapiens, HuCCT1;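 also: growth inhibition of HuCCT-1 cells, read out by a cell viability assay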
Description: SANGER: Inhibition of human HuCCT1 cell growth in a cell viability assay.

JEG-3 = type: functional, cell-based, Homo sapiens;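 also: growth inhibition of human JEG-3 cells, read out with a cell viability assay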
Description: SANGER: Inhibition of human JEG-3 cell growth in a cell viability assay.

KALS-1 = type: functional, cell-based, Homo sapiens;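 also: growth inhibition of KALS-1 cells, determined with a cell viability assay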
KM12 = type: functional, cell-based, Homo sapiens;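 also: KM12 cell growth inhibition, read out with a cell viability assay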
Description: SANGER: Inhibition of human KM12 cell growth in a cell viability assay.

KU812 cell line = type: functional, cell-based; conditions: Homo sapiens;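 also: growth inhibition of KU812 cells, read out with a cell viability assay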
Description: SANGER: Inhibition of human KU812 cell growth in a cell viability assay.

KYSE-150 cell line = type: functional, cell-based, Homo sapiens;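 also: growth inhibition of human KYSE-150 cells, read out with a cell viability assay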
Description: SANGER: Inhibition of human KYSE-150 cell growth in a cell viability assay.

L-428 = type: functional, cell-based; conditions: Homo sapiens
Description: SANGER: Inhibition of human L-428 cell growth in a cell viability assay.

LB2241-RCC = type: functional, cell-based, Homo sapiens;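 also: cell viability assay measuring how strongly the cultured human renal carcinoma line is prevented from growing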
Description: SANGER: Inhibition of human LB2241-RCC cell growth in a cell viability assay.

LOX IMVI = type: functional, cell-based; conditions: Homo sapiens
Description: SANGER: Inhibition of human LOXIMVI cell growth in a cell viability assay.

Lu-65 = type: functional, cell-based; conditions: Homo sapiens;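 also: growth inhibition of Lu-65 cancer cells, read out by a cell viability assay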
Description: SANGER: Inhibition of human LU-65 cell growth in a cell viability assay.

M14 = type: functional, cell-based, Homo sapiens;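 also: growth inhibition of M14 cells, read out with a cell viability assay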
Description: SANGER: Inhibition of human M14 cell growth in a cell viability assay.

MDA-MB-157 = type: functional, cell-based, Homo sapiens
Description: SANGER: Inhibition of human MDA-MB-157 cell growth in a cell viability assay.

MFE-280 = type: functional, cell-based, Homo sapiens;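 also: growth inhibition of MFE-280 cells, determined with a cell viability readout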
Description: SANGER: Inhibition of human MFE-280 cell growth in a cell viability assay.

MHH-PREB-1 = type: functional, cell-based; conditions: Homo sapiens;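 also: cell viability assay measuring inhibition of proliferation of human MHH-PREB-1 cells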
Description: SANGER: Inhibition of human MHH-PREB-1 cell growth in a cell viability assay.

MZ2-MEL = type: functional, cell-based, Homo sapiens;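 also: growth inhibition of MZ2-MEL cells read out with a cell viability assay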
Description: SANGER: Inhibition of human MZ2-MEL cell growth in a cell viability assay.

NCI-H1623 = type: functional, cell-based, Homo sapiens;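 also: cell viability assay used as the read-out for growth inhibition of NCI-H1623 cells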
Description: SANGER: Inhibition of human NCI-H1623 cell growth in a cell viability assay.

NCI-H1993 = type: functional, cell-based, Homo sapiens;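 also: growth inhibition of the cancer cell line, assessed with a cell viability assay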
Description: SANGER: Inhibition of human NCI-H1993 cell growth in a cell viability assay.

NCI-H226 = type: functional, cell-based, Homo sapiens;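 also: cell viability read-out used to gauge growth inhibition of the cells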
Description: SANGER: Inhibition of human NCI-H226 cell growth in a cell viability assay.

NCI-H661 = type: functional, cell-based, Homo sapiens;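 also: cell viability assay read-out, IC50 being the concentration that inhibits growth of the cells by half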
Description: SANGER: Inhibition of human NCI-H661 cell growth in a cell viability assay.

NCI-H82 = type: functional, cell-based; conditions: Homo sapiens;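 also: growth inhibition of NCI-H82 cells, measured with a cell viability readout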
Description: SANGER: Inhibition of human NCI-H82 cell growth in a cell viability assay.

SNU1 = type: functional, cell-based; conditions: Homo sapiens;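 also: growth inhibition of human NCI-SNU-1 cells, measured with a cell viability assay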
Description: SANGER: Inhibition of human NCI-SNU-1 cell growth in a cell viability assay.

NUGC-3 = type: functional, cell-based, Homo sapiens;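 also: growth inhibition of human NUGC-3 cells, read out with a cell viability assay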
Description: SANGER: Inhibition of human NUGC-3 cell growth in a cell viability assay.

OVCAR-3 = type: functional, cell-based, Homo sapiens;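 also: growth inhibition of human OVCAR-3 cells, determined by a cell viability assay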
Description: SANGER: Inhibition of human OVCAR-3 cell growth in a cell viability assay.

RCC10RGB = type: functional, cell-based, Homo sapiens;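 also: growth inhibition of human RCC10RGB cells, read out by a cell viability assay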
Description: SANGER: Inhibition of human RCC10RGB cell growth in a cell viability assay.

SBC-5 = type: functional, cell-based, Homo sapiens;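 also: cell viability assay read-out, IC50 is the concentration that inhibits growth of the cells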
Description: SANGER: Inhibition of human SBC-5 cell growth in a cell viability assay.

SCH = type: functional, cell-based, Homo sapiens;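 also: growth inhibition of human SCH cells, read out in a cell viability assay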
Description: SANGER: Inhibition of human SCH cell growth in a cell viability assay.

SJSA-1 = type: functional, cell-based, Homo sapiens;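 also: growth inhibition of human SJSA-1 cells, read out through a cell viability measurement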
Description: SANGER: Inhibition of human SJSA-1 cell growth in a cell viability assay.

SK-MEL-2 = type: functional, cell-based, Homo sapiens;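 also: growth inhibition of human SK-MEL-2 cells measured with a cell viability assay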
Description: SANGER: Inhibition of human SK-MEL-2 cell growth in a cell viability assay.

SNB-75 = type: functional, cell-based, Homo sapiens;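 also: cell viability assay measuring growth inhibition of human SNB-75 cells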
Description: SANGER: Inhibition of human SNB75 cell growth in a cell viability assay.

SW13 = type: functional, cell-based, Homo sapiens;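 also: IC50 is inhibition of SW13 cell growth, read out with a cell viability assay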
Description: SANGER: Inhibition of human SW13 cell growth in a cell viability assay.

SW1573 = type: functional, cell-based, Homo sapiens;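 also: growth inhibition of SW1573 cells, read out with a cell viability assay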
Description: SANGER: Inhibition of human SW1573 cell growth in a cell viability assay.

SW1990 = type: functional, cell-based, Homo sapiens;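 also: cell growth inhibition determined with a viability assay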
Description: SANGER: Inhibition of human SW1990 cell growth in a cell viability assay.

TCC-SUP = type: functional, cell-based, Homo sapiens;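 also: growth inhibition of TCC-SUP cells, read out with a cell viability assay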
Description: SANGER: Inhibition of human TCCSUP cell growth in a cell viability assay.

BFTC-909 = type: functional, cell-based, Homo sapiens
Description: SANGER: Inhibition of human BFTC-909 cell growth in a cell viability assay.

BV-173 = type: functional, cell-based; conditions: Homo sapiens
Description: SANGER: Inhibition of human BV-173 cell growth in a cell viability assay.

C32 = type: functional, cell-based, Homo sapiens;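 also: cell viability assay, with IC50 reflecting inhibition of C32 cell growth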
Description: SANGER: Inhibition of human C32 cell growth in a cell viability assay.

CAL-54 = type: functional, cell-based, Homo sapiens;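 also: growth inhibition of CAL-54 cells, read out by a viability measurement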
Description: SANGER: Inhibition of human CAL-54 cell growth in a cell viability assay.

VM-CUB-1 = type: functional, cell-based; conditions: Homo sapiens;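 also: cell viability assay measuring growth inhibition of the human VM-CUB-1 cell line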
Description: SANGER: Inhibition of human VM-CUB-1 cell growth in a cell viability assay.

VMRC-RCZ = type: functional, cell-based; conditions: Homo sapiens;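 also: growth inhibition measured with a cell viability assay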
no-10 = type: functional, cell-based, Homo sapiens;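 also: growth inhibition of no-10 cells, read out with a cell viability assay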
Description: SANGER: Inhibition of human no-10 cell growth in a cell viability assay.

no-11 = type: functional, cell-based, Homo sapiens;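 also: growth inhibition of human NO-11 cells, read out with a cell viability assay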
Description: SANGER: Inhibition of human no-11 cell growth in a cell viability assay.

CHL-1 = type: functional, cell-based, Homo sapiens;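 also: cell growth inhibition, read out with a cell viability assay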
Description: SANGER: Inhibition of human CHL-1 cell growth in a cell viability assay.

CHP-212 = type: functional, cell-based, Homo sapiens
Description: SANGER: Inhibition of human CHP-212 cell growth in a cell viability assay.

TGW = type: functional, cell-based; conditions: Homo sapiens;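 also: growth inhibition of human TGW cells, read out with a cell viability assay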
Description: SANGER: Inhibition of human TGW cell growth in a cell viability assay.

Measured: IC50

CN(C)C/C=C/C(=O)Nc1cc2c(Nc3ccc(F)c(Cl)c3)ncnc2cc1O[C@H]1CCOC1 [AFATINIB]
> 500 nM: DMS-114; Homo sapiens, DMS-114 | ES4; Homo sapiens, ES4 | ES7; Homo sapiens, ES7 | HCT-116; Homo sapiens, HCT-116 | HT-1080; Homo sapiens, HT-1080 | HuCCT-1; Homo sapiens, HuCCT-1 | JEG-3; Homo sapiens, JEG-3 | KALS-1; Homo sapiens, KALS-1 | KM12; Homo sapiens, KM12 | KYSE-150 cell line; Homo sapiens, KYSE-150 | L-428 | LOX IMVI | M14; Homo sapiens, M14 | MDA-MB-157; Homo sapiens, MDA-MB-157 | MFE-280; Homo sapiens, MFE-280 | MHH-PREB-1 | MZ2-MEL; Homo sapiens, MZ2-MEL | NCI-H1993; Homo sapiens, NCI-H1993 | NCI-H226; Homo sapiens, NCI-H226 | NCI-H661; Homo sapiens, NCI-H661 | NCI-H82 | SNU1 | OVCAR-3; Homo sapiens, OVCAR-3 | RCC10RGB; Homo sapiens, RCC10RGB | SBC-5; Homo sapiens, SBC-5 | SCH; Homo sapiens, SCH | SJSA-1; Homo sapiens, SJSA-1 | SK-MEL-2; Homo sapiens, SK-MEL-2 | SNB-75; Homo sapiens, SNB-75 | SW1573; Homo sapiens, SW1573 | SW1990; Homo sapiens, SW1990 | TCC-SUP; Homo sapiens, TCC-SUP | BFTC-909; Homo sapiens, BFTC-909 | C32; Homo sapiens, C32 | CAL-54; Homo sapiens, CAL-54 | VM-CUB-1 | VMRC-RCZ | no-10; Homo sapiens | no-11; Homo sapiens | CHP-212; Homo sapiens, CHP-212
162 nM: SW13; Homo sapiens, SW13
155 nM: KU812 cell line
80.2 nM: NCI-H1623; Homo sapiens, NCI-H1623
18.4 nM: CHL-1; Homo sapiens, CHL-1
126 nM: Lu-65
131 nM: HN; Homo sapiens, HN
109 nM: LB2241-RCC; Homo sapiens, LB2241-RCC
384 nM: NUGC-3; Homo sapiens, NUGC-3
33.1 nM: DSH1; Homo sapiens, DSH1
176 nM: BV-173

Cc1cc([C@@H](C)Nc2ccccc2C(=O)O)c2nc(N3CCOCC3)cc(=O)n2c1 [AZD-6482]
679 nM and 3920 nM: OVCAR-3; ovcar-3
3150 nM: SNB-75; snb-75
813 nM and 3260 nM: ES7; es7
1670 nM: SNB-75; Homo sapiens, SNB-75
4720 nM: CHL-1; chl-1
4350 nM: KALS-1; Homo sapiens, KALS-1
> 5120 nM and 1320 nM: LB2241-RCC; lb2241-rcc
> 5120 nM and 1240 nM: HuCCT-1; hucct1
> 5120 nM and 3130 nM: NCI-H1623; nci-h1623
> 5120 nM and 1250 nM: CAL-54; cal-54
1600 nM: KU812 cell line
> 5120 nM: DMS-114; dms-114 | DSH1; Homo sapiens, DSH1 | DSH1; dsh1 | ES4; es4 | HCT-116; hct-116 | HN; hn | HT-1080; ht-1080 | JEG-3; jeg-3 | KALS-1; kals-1 | KM12; Homo sapiens, KM12 | KM12; km12 | KYSE-150 cell line; kyse-150 | L-428 | LOX IMVI | Lu-65 | M14; m14 | MDA-MB-157; mda-mb-157 | MFE-280; mfe-280 | MHH-PREB-1 | MZ2-MEL; mz2-mel | NCI-H1993; nci-h1993 | NCI-H226; Homo sapiens, NCI-H226 | NCI-H226; nci-h226 | NCI-H661; nci-h661 | NCI-H82 | SNU1 | NUGC-3; nugc-3 | RCC10RGB; rcc10rgb | SBC-5; Homo sapiens, SBC-5 | SBC-5; sbc-5 | SCH; sch | SJSA-1; Homo sapiens, SJSA-1 | SJSA-1; sjsa-1 | SK-MEL-2; Homo sapiens, SK-MEL-2 | SK-MEL-2; sk-mel-2 | SW13; Homo sapiens, SW13 | SW13; sw13 | SW1573; sw1573 | SW1990; sw1990 | TCC-SUP; tcc-sup | BFTC-909; bftc-909 | BV-173 | C32; c32 | TGW | VM-CUB-1 | no-10 | no-10; Homo sapiens | no-11 | CHL-1; Homo sapiens, CHL-1 | CHP-212; chp-212
